In the OligoGym collection:
Where “and” joins values, the source holds several entries; their conditions need not be identical. Identical values can stand only once. After the bases stand the sugars from the 5' end (letter, count) and the backbone: PS all phosphorothioate, else s phosphorothioate and o phosphodiester by linkage. Methylation of C is not given here. e = 2'-O-(2-methoxyethyl) (MOE); k = constrained ethyl (cEt); d = 2'-deoxy (DNA)

Molecular target: IRF4
Conditions: ASO

Row | Sequence | target mRNA inhibition (SK-MEL-28, 4 µM) | target mRNA inhibition (MM.1R, 1 µM) | other results
1 | TTCAAGAGGAACTAGT (sugars k3 d10 k3, PS) | 6% |  | 
2 | CTTTATCAAGACAAGG (sugars k3 d10 k3, PS) | 56% |  | 
3 | AACGAGGTAAATCTTC (sugars k3 d10 k3, PS) | 51% |  | 
4 | TAACAATACTGTAAGG (sugars k3 d10 k3, PS) | 45% |  | 
5 | ATTATATACTGGTTGG (sugars kkdddddddddkekek, PS) |  | 52% | 
6 | TATACCAACGACAGCA (sugars k3 d10 k3, PS) | 49% |  | 
7 | AGCTCCACTGTTAAAG (sugars k3 d10 k3, PS) | 44% |  | 
8 | CACAGAGGACTTCGGG (sugars k3 d10 k3, PS) | 49% |  | 
9 | GATCATCAACTTCTTA (sugars k3 d10 k3, PS) | 47% |  | 
10 | TGAACCCTTCATCAGA (sugars k3 d10 k3, PS) | 48% |  | 
11 | CATTAGCAATTAGCTC (sugars k3 d10 k3, PS) |  | -37% | 
12 | AACGCAAGTCTGAATT (sugars k3 d10 k3, PS) |  | 3% | 
13 | CAAAGCATAGAGTCAC (sugars k3 d10 k3, PS) | 36% |  | 
14 | ATCTACCTCAGTTTGT (sugars k3 d10 k3, PS) | 42% |  | 
15 | ATAGAGCATCACTATT (sugars k3 d10 k3, PS) |  | 0% | 
16 | TTGTTTGCAAGCTATA (sugars k3 d10 k3, PS) |  | 36% | 
17 | ATATAGAATTAGGTGC (sugars k3 d10 k3, PS) | 16% |  | 
18 | TAGGCACATCAATGTT (sugars k3 d10 k3, PS) |  | 12% | 
19 | TGAAGTGCTGTGTGGG (sugars k3 d10 k3, PS) | 57% |  | 
20 | ACTAAGCTTGATAAAG (sugars k3 d10 k3, PS) |  | 14% and 5% | 
21 | GAACCACAAGCAGTGA (sugars k3 d10 k3, PS) |  | -32% | 
22 | CAACAGGCGGACACGC (sugars k3 d10 k3, PS) | 42% |  | 
23 | GCGAAGGCTCCTACCC (sugars k3 d10 k3, PS) | -15% |  | 
24 | CTGTTACCGATGCTTC (sugars k2 d9 e3 k2, PS) |  | 64% and 56% | 
25 | TGTATTTATGCCCTCG (sugars k3 d10 k3, PS) | 44% |  | 
26 | CTAAACTCCTAAGTAC (sugars k3 d10 k3, PS) | 14% |  | 

Row | Sequence | target mRNA inhibition (SK-MEL-28, 4 µM) | target mRNA inhibition (MM.1R, 1 µM) | other results
27 | ATGGCAAAAGACCAAT (sugars k3 d10 k3, PS) |  | -5% | 
28 | CCAGGGTGAGCTGCTT (sugars k3 d10 k3, PS) | 31% |  | 
29 | CAAGCTGGGCCTTGCC (sugars k3 d10 k3, PS) | 34% |  | 
30 | TGACACAGGAGCCGCT (sugars k3 d10 k3, PS) |  | 15% | 
31 | TAAAGAGCGCATTTCA (sugars k3 d10 k3, PS) | 41% |  | 
32 | GGGCATCCTCAGTTAC (sugars k3 d10 k3, PS) | 33% |  | 
33 | ACGCAAGTCTGAATTT (sugars k3 d10 k3, PS) | 65% |  | 
34 | AAAGATACAAAACGGA (sugars k3 d10 k3, PS) | 38% |  | 
35 | CGTGTGCTTGCCAAGC (sugars kkdddddddddkdkdk, PS) |  | 67% and 53% | 
36 | TTCATTAGAAAGCCCT (sugars k3 d10 k3, PS) |  | -22% | 
37 | CGGATAGATCTGTGGT (sugars k3 d10 k3, PS) |  |  | target mRNA inhibition (MM.1R, 0.0625 µM): -25%; target mRNA inhibition (MM.1R, 0.25 µM): -3%; target mRNA inhibition (MM.1R, 4 µM): 50%
38 | AAGTCATTGCTCTTGT (sugars k3 d10 k3, PS) | 28% |  | 
39 | CTGAGATAAGAAGCAC (sugars k3 d10 k3, PS) | 37% |  | 
40 | GTCCGACGCACCGCGG (sugars k3 d10 k3, PS) | 18% |  | 
41 | AGTTGTAAATGAGTCG (sugars kkdddddddddekeke, PS) |  | 73% | target mRNA inhibition (MM.1R, 0.074 µM): 17%; target mRNA inhibition (MM.1R, 0.222 µM): 44%; target mRNA inhibition (MM.1R, 0.666 µM): 67%; target mRNA inhibition (MM.1R, 2 µM): 86%
42 | TAGCAAATGGCAAGTT (sugars k3 d10 k3, PS) | 17% |  | 
43 | TTAAATAAGATCCCAC (sugars k3 d10 k3, PS) | 23% |  | 
44 | ACAGGGTGCTCCTGAG (sugars k3 d10 k3, PS) | 23% |  | 
45 | CCACAACTGCAGTTTG (sugars k3 d10 k3, PS) | 23% |  | 
46 | TAGAAGCCCACAAGAA (sugars k3 d10 k3, PS) | 1% |  | 
47 | GCAGAGGGACCCACAC (sugars k3 d10 k3, PS) | 21% |  | 
48 | TCCACCTGCATCGAGA (sugars k3 d10 k3, PS) | 47% |  | 
49 | TCAGTTACTCACGAGC (sugars k3 d10 k3, PS) |  | -3% | 
50 | GTTAATAATGCTTGCA (sugars k3 d10 k3, PS) | 2% |  | 
51 | GTCCGCCCCGCGCGGT (sugars k3 d10 k3, PS) |  | 3% | 
52 | CTATAGTGTTCCAGGA (sugars kkdddddddddkekek, PS) |  | 43% | 

Row | Sequence | target mRNA inhibition (SK-MEL-28, 4 µM) | target mRNA inhibition (MM.1R, 1 µM) | other results
53 | CCCTATCACTGCCAAG (sugars k3 d10 k3, PS) | 38% |  | 
54 | AAGCATTTTATCATCC (sugars k3 d10 k3, PS) |  | 25% | 
55 | CGAAAACAGCCGCCGG (sugars k3 d10 k3, PS) | 15% |  | 
56 | CTGCTTGAGGTTTTCC (sugars kkdddddddddekeke, PS) |  | 49% | 
57 | GGCACATCAATGTTTT (sugars kkddddddddddkeke, PS) |  | 9% | 
58 | GGCCTGAGTTACCGCA (sugars k3 d10 k3, PS) |  | 8% | 
59 | CCCGACCCTCCCCAAC (sugars k3 d10 k3, PS) |  | -35% | 
60 | AATCAGAATGGCGAGT (sugars k3 d10 k3, PS) | 39% |  | 
61 | AAGTTCATGTAAAGTC (sugars kddddddddddkekek, PS) |  | 14% and 6% | 
62 | AATAAGCAGAAACAGC (sugars k4 d8 k4, PS) | 39% |  | 
63 | ATCACCGAACACACCA (sugars k3 d10 k3, PS) |  | -12% | 
64 | TGTTACCGATGCTTCA (sugars kdddddddddkekeke, PS) |  | 10% and 13% | 
65 | AATTCCTCCACTACCA (sugars k3 d10 k3, PS) |  | -41% | 
66 | TAGCAGAGGTTCTACG (sugars k3 d10 k3, PS) | 24% |  | 
67 | GTCAGCTCCATCCTGC (sugars k3 d10 k3, PS) | 52% |  | 
68 | GGCAAGATGAGAATTC (sugars k3 d10 k3, PS) | 25% |  | 
69 | ATAGATCTGTGGTAAT (sugars k3 d10 k3, PS) | 38% |  | 
70 | TGATAGCTGAGCTGAT (sugars k3 d10 k3, PS) | 37% |  | 
71 | TGCATAACACGGTGTT (sugars k3 d10 k3, PS) | 38% |  | 
72 | CCTGAAAAGAGCCGCC (sugars k3 d10 k3, PS) |  | -3% | 
73 | TGGGTACATGGCAGTG (sugars k3 d10 k3, PS) | 74% |  | 
74 | GTGATGTCAGGTTTTC (sugars kkddddddddddkeke, PS) |  | 18% | 
75 | CTGTCACCTGGCAACC (sugars k3 d10 k3, PS) |  | 11% | 
76 | ACACTTTTAGAGAGGA (sugars kkdddddddddkekek, PS) |  | 27% | 
77 | GTCGCGCAAGTCTACA (sugars k3 d10 k3, PS) |  | 4% and 16% | 
78 | ACCAGAACTAATGTCC (sugars k3 d10 k3, PS) | 32% |  | 

Row | Sequence | target mRNA inhibition (SK-MEL-28, 4 µM) | target mRNA inhibition (MM.1R, 1 µM) | other results
79 | GTTCATATCACAGAGC (sugars k3 d10 k3, PS) | 45% |  | 
80 | CCTCAGGAAATGTCCA (sugars k3 d10 k3, PS) | 37% |  | 
81 | AGCATTATCTACCTCA (sugars k3 d10 k3, PS) | 78% |  | 
82 | TCCTGTAACGCACCCG (sugars k3 d10 k3, PS) |  | -13% | 
83 | TAAATCACCCTGGTCA (sugars k3 d10 k3, PS) | 22% |  | 
84 | AGATCGAGCGGTGAAA (sugars k3 d10 k3, PS) | 24% |  | 
85 | GAAGCATTTTATCATC (sugars k2 d9 e3 k2, PS) |  | 9% | 
86 | GGATAACCTGAACATG (sugars k3 d10 k3, PS) |  | 9% | 
87 | AAACAGGAACTGACCT (sugars k3 d10 k3, PS) | 20% |  | 
88 | CTCTATAGTGTTCCAG (sugars kkddddddddddkeke, PS) |  | 27% | 
89 | ATGCTGAACCCCACAG (sugars k3 d10 k3, PS) |  | 16% | 
90 | AGATTAATAGTAAGTT (sugars k3 d10 k3, PS) | 4% |  | 
91 | GTTCTCTACTGTTTGT (sugars k3 d10 k3, PS) | 68% |  | 
92 | GAATTCCAAACCTTAA (sugars k3 d10 k3, PS) |  | 4% | 
93 | CAGTGGAGCTCCACAG (sugars k3 d10 k3, PS) | 41% |  | 
94 | AGCTGATGGAGAAACG (sugars k3 d10 k3, PS) | 10% |  | 
95 | AGCAGTGATGTCAGGT (sugars k3 d10 k3, PS) |  | 84% and 68% | target mRNA inhibition (MM.1R, 0.0625 µM): 1%; target mRNA inhibition (MM.1R, 0.25 µM): 23%; target mRNA inhibition (MM.1R, 4 µM): 92%
96 | CCCACACCAGCCCGGG (sugars k4 d8 k4, PS) | -6% |  | 
97 | GGTTACTAATTCCATA (sugars k3 d10 k3, PS) | 56% |  | 
98 | ATAGCTGTTTATTTCC (sugars k3 d10 k3, PS) | 62% |  | target mRNA inhibition (MM.1R, 0.074 µM): 7%; target mRNA inhibition (MM.1R, 0.222 µM): 12%; target mRNA inhibition (MM.1R, 0.666 µM): 24%; target mRNA inhibition (MM.1R, 2 µM): 50%; target mRNA inhibition (SK-MEL-28, 0.185 µM): 13%; target mRNA inhibition (SK-MEL-28, 5 µM): 75%; target mRNA inhibition (SK-MEL-28, 15 µM): 90%
99 | GTTGTCTGGCTAGCAG (sugars k3 d10 k3, PS) | 59% |  | target mRNA inhibition (SK-MEL-28, 0.185 µM): 20%; target mRNA inhibition (SK-MEL-28, 5 µM): 70%; target mRNA inhibition (SK-MEL-28, 15 µM): 89%
100 | TACTGTTACCGATGCT (sugars kdddddddddkekeke, PS) |  | 18% | 
101 | GTCAAAAAGATGCAGA (sugars k3 d10 k3, PS) | 50% |  | 
102 | GAACCTGCTGGGCTGG (sugars k3 d10 k3, PS) | 36% |  | 
